Experimental data: ChEMBL document CHEMBL1201862, “PubChem BioAssay data set” (2004)
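In this assay, cells in 96-well plates receive the compound at five concentrations for 48 hours. Endpoints are linearly interpolated between the surrounding concentrations. At the GI50, growth is halved.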 Activity calls are given as the source filed them. Rule as the data show it: active = GI50 up to about 1.1 µM and inactive = higher.

Experiments:
Assay in all cases: inhibition of tumour cell growth, NCI panel, 48 h
HOP-62 = tested on: HOP-62
HCT-116 = tested on: HCT-116
IGROV-1 = tested on: IGROV-1
Hs-578T = tested on: Hs-578T
A549 = tested on: A549
RPMI-8226 = tested on: RPMI-8226
MDA-MB-231 = tested on: MDA-MB-231
OVCAR-3 = tested on: OVCAR-3
KM12 = tested on: KM12
TK-10 = tested on: TK-10
SK-MEL-2 = tested on: SK-MEL-2
NCI-H460 = tested on: NCI-H460
CCRF-CEM = tested on: CCRF-CEM
OVCAR-5 = tested on: OVCAR-5
NCI-H522 = tested on: NCI-H522
BT-549 = tested on: BT-549
DU-145 = tested on: DU-145
MCF7 = tested on: MCF7
SNB-75 = tested on: SNB-75
Malme-3M = tested on: Malme-3M

Measured: GI50

Cc1c(C(C)C)cc(OCCO)cc1C(C)C
inactive: HOP-62 75.7 µM | HCT-116 31.3 µM | IGROV-1 58.3 µM | Hs-578T 27.8 µM | A549 38.3 µM | RPMI-8226 25.2 µM | MDA-MB-231 32.9 µM | OVCAR-3 47.5 µM | KM12 43.2 µM | TK-10 > 100 µM | SK-MEL-2 23.9 µM | NCI-H460 36.4 µM | CCRF-CEM 35.4 µM | OVCAR-5 66.4 µM | NCI-H522 25.9 µM | BT-549 37.2 µM | DU-145 73.6 µM | MCF7 33 µM | SNB-75 23.9 µM

FC(F)(F)c1cnc(N/N=C(/c2ccccc2)c2ccccn2)c(Cl)c1
inactive: HOP-62 7.4 µM | HCT-116 3.26 µM | IGROV-1 2.83 µM | Hs-578T 9.14 µM | A549 3.53 µM | RPMI-8226 2.97 µM | MDA-MB-231 5.57 µM | OVCAR-3 3.37 µM | KM12 5.14 µM | SK-MEL-2 8.18 µM | NCI-H460 3.27 µM | CCRF-CEM 2.4 µM | OVCAR-5 6.87 µM | NCI-H522 1.9 µM | BT-549 11.1 µM | DU-145 6.64 µM | MCF7 2.44 µM | SNB-75 6.25 µM

CCOC(=O)Cn1c(=O)c2nc(SC)sc2n(-c2ccccc2)c1=O
inactive: HOP-62 > 100 µM | HCT-116 > 100 µM | IGROV-1 > 100 µM | Hs-578T > 100 µM | A549 > 100 µM | RPMI-8226 > 100 µM | MDA-MB-231 > 100 µM | Malme-3M > 100 µM | KM12 > 100 µM | TK-10 > 100 µM | SK-MEL-2 > 100 µM | NCI-H460 > 100 µM | CCRF-CEM > 100 µM | OVCAR-5 > 100 µM | BT-549 > 100 µM | MCF7 > 100 µM | SNB-75 > 100 µM

O=C(O)C(Cc1cc(I)c(O)c(I)c1)C1CCCCC1 (configuration not stated)
inactive: HOP-62 24.5 µM | HCT-116 26.5 µM | IGROV-1 27.5 µM | Hs-578T 27.9 µM | A549 31.9 µM | MDA-MB-231 21.8 µM | OVCAR-3 15.6 µM | Malme-3M 37.7 µM | KM12 30.4 µM | TK-10 24 µM | NCI-H460 18.1 µM | CCRF-CEM 51.1 µM | OVCAR-5 49.2 µM | NCI-H522 29.3 µM | BT-549 34.5 µM | DU-145 33 µM | SNB-75 37.6 µM

CN(/N=C/C=N/N(C)C1=NCCCCN1)C1=NCCCCN1
inactive: HOP-62 > 100 µM | HCT-116 > 100 µM | IGROV-1 > 100 µM | Hs-578T > 100 µM | A549 > 100 µM | MDA-MB-231 > 100 µM | OVCAR-3 > 100 µM | Malme-3M > 100 µM | TK-10 > 100 µM | NCI-H460 > 100 µM | CCRF-CEM > 100 µM | OVCAR-5 > 100 µM | NCI-H522 > 100 µM | BT-549 > 100 µM | MCF7 > 100 µM | SNB-75 > 100 µM

CCOC(=O)c1nnsc1NN=C(C)C
inactive: HOP-62 > 100 µM | HCT-116 > 100 µM | IGROV-1 > 100 µM | Hs-578T > 100 µM | A549 > 100 µM | RPMI-8226 > 100 µM | MDA-MB-231 > 100 µM | OVCAR-3 > 100 µM | Malme-3M > 100 µM | KM12 > 100 µM | TK-10 > 100 µM | SK-MEL-2 > 100 µM | NCI-H460 > 100 µM | OVCAR-5 > 100 µM | NCI-H522 > 100 µM | BT-549 > 100 µM | DU-145 > 100 µM | SNB-75 > 100 µM

O=c1c2ccccc2nc2sc(/N=C/C=C/c3ccccc3)nn12
inactive: HOP-62 > 100 µM | HCT-116 > 100 µM | IGROV-1 > 100 µM | Hs-578T > 100 µM | A549 > 100 µM | RPMI-8226 > 100 µM | OVCAR-3 > 100 µM | Malme-3M > 100 µM | KM12 > 100 µM | TK-10 > 100 µM | SK-MEL-2 > 100 µM | NCI-H460 > 100 µM | CCRF-CEM 55.5 µM | OVCAR-5 > 100 µM | NCI-H522 > 100 µM | BT-549 > 100 µM | DU-145 > 100 µM | MCF7 > 100 µM | SNB-75 > 100 µM

CCOC(=O)c1nc2ccccc2nc1Oc1ccc(F)cc1
inactive: HOP-62 > 100 µM | HCT-116 > 100 µM | IGROV-1 > 100 µM | Hs-578T 39.3 µM | A549 > 100 µM | RPMI-8226 > 100 µM | MDA-MB-231 > 100 µM | OVCAR-3 > 100 µM | KM12 > 100 µM | TK-10 > 100 µM | SK-MEL-2 > 100 µM | NCI-H460 > 100 µM | CCRF-CEM > 100 µM | OVCAR-5 > 100 µM | BT-549 > 100 µM | DU-145 > 100 µM | MCF7 > 100 µM | SNB-75 11.4 µM

COC(=O)c1ccc(C(=O)NC(Cc2ccc(Oc3cc(CC(NC(=O)c4ccccc4C(=O)OC)C(=O)OC)ccc3OC)cc2)C(=O)OC)cc1 (configuration not stated)
inactive: HOP-62 36.3 µM | HCT-116 > 100 µM | IGROV-1 > 100 µM | Hs-578T 4.21 µM | A549 > 100 µM | RPMI-8226 > 100 µM | OVCAR-3 > 100 µM | Malme-3M > 100 µM | KM12 > 100 µM | TK-10 > 100 µM | SK-MEL-2 77.8 µM | NCI-H460 > 100 µM | CCRF-CEM > 100 µM | OVCAR-5 > 100 µM | BT-549 74.8 µM | DU-145 > 100 µM | MCF7 67.5 µM | SNB-75 42.6 µM

COC(=O)C(Cc1c(-c2[nH]c3ccccc3c2CC(NC(C)=O)C(=O)OC)[nH]c2ccccc12)NC(C)=O (configuration not stated)
inactive: HOP-62 > 100 µM | HCT-116 > 100 µM | IGROV-1 > 100 µM | Hs-578T > 100 µM | A549 > 100 µM | RPMI-8226 > 100 µM | MDA-MB-231 > 100 µM | OVCAR-3 > 100 µM | Malme-3M > 100 µM | KM12 > 100 µM | TK-10 > 100 µM | SK-MEL-2 > 100 µM | NCI-H460 > 100 µM | CCRF-CEM > 100 µM | OVCAR-5 > 100 µM | NCI-H522 16.3 µM | BT-549 > 100 µM | DU-145 > 100 µM | SNB-75 92 µM

O=[N+]([O-])c1cccc(/N=C2\c3ccccc3CN2c2cccc([N+](=O)[O-])c2)c1
inactive: HOP-62 > 100 µM | HCT-116 > 100 µM | IGROV-1 > 100 µM | Hs-578T 37.8 µM | A549 > 100 µM | RPMI-8226 > 100 µM | MDA-MB-231 > 100 µM | OVCAR-3 65 µM | KM12 > 100 µM | TK-10 > 100 µM | SK-MEL-2 > 100 µM | NCI-H460 > 100 µM | OVCAR-5 > 100 µM | NCI-H522 > 100 µM | BT-549 > 100 µM | DU-145 > 100 µM | MCF7 33.7 µM | SNB-75 24.8 µM
